# Where two headings read alike, the source gives them in different places.
# Columns and labels:
# DMBT1pbs1 = target: T1, DMBT1pbs1 (Homo sapiens, UniProt Q9UGM3); format: binding; parameters: key: +++: no difference in aggregation compared to reference; ++: moderate inhibition of aggregation over the entire time course or maximal aggregation delayed by 1-5-min compared to reference; +: strong inhibition of aggregation over the entire time course or maximal aggregation delayed by 5-10 min compared to reference; −: complete inhibition of aggregation after 10 min
# T1 construct: purchased Eurogentec, Belgium
# Experimental: Streptococcus mutans (Ingbritt), Streptococcus gordonii (HG 222 and DSM20568), Escherichia coli (F7 and OM36-1), and Helicobacter pylori (ATCC 43504) were gown and processed as described earlier. Salmonella typhimurium (strain SF1399: wild type; strain SF1195: Rc chemotype; strain SF1567: Rd1 chemotype; strain SF1398: Re chemotype) were kindly provided by Dr. Ben Appelmelk from the Free University of Amsterdam, The Netherlands, and were grown and processed as previously described for E. coli. The bacteria were diluted in the buffers depicted previously to a final OD700 of 0.5 or 1.0 corresponding to about 0.5 and 1.0×10^9 cells/ml respectively.
# For quantitative measurements of bacterial aggregation, we added 200 μl peptide stock solution (1 mg/ml in 10% DMSO) diluted with 300 μl TBS containing 0.1% v/v Tween 20 and 1 mM CaCl2 (TBS-TC) to 500 μl of the respective bacterial suspensions to obtain final peptide concentrations of […]. As controls, we used bacterial suspensions, to which 200 μl 10% (v/v %) DMSO in H2O and 300 μl TBS-TC were added. Bacterial aggregation was monitored by measuring the optical density at 700 nm in intervals of 1 min for 1 h in a spectrophotometer (UVICON 930, Kontron Instruments). For the semi-quantitative high-throughput competition assays, we first determined the allowed pH range for DMBT1pbs1-mediated aggregation of S. gordonii and E. coli by using TBS-TC adjusted with either HCl or NaOH. […] For monitoring competitive effects, we preincubated 20 μl of the DMBT1pbs1 stock solution (20 μg) with 20 μl of the respective substance solutions in 48-well microtiter plates at room temperature (RT) for 2 min. As reference served 20 μl 10% (v/v) DMSO solution in H2O mixed with 20 μl of the solvents of the respective substances. Afterwards, 100 μl of S. gordonii or E. coli (resuspended in TBS-TC or TBS-T, respectively, for the calcium-free assays) solution was added simultaneously to each well using a multichannel pipette. Bacterial aggregation was compared to the reference by visual inspection over a time course of 10 min. The scoring system was: (+++) no difference in aggregation compared to reference. (++) moderate inhibition of aggregation over the entire time course or maximal aggregation delayed by 1-5-min compared to reference; (+) strong inhibition of aggregation over the entire time course or maximal aggregation delayed by 5-10 min compared to reference; (−) complete inhibition of aggregation after 10 min. Each experiment was at least done in triplicate.
# Sucrose, maltose, dextrose, and the various salts tested were standard reagents obtained from Merck or Sigma. […] The following substances were obtained from Sigma with catalogue numbers in brackets: heparansulfate (H-7640), chondroitinsulfate B (C-3788), azoxymethane (A-9517), N-nitrosodiethlylamine (N-0258), streptococcus sanguis LTA (L-3765), Staphylococcus aureus LTA (L-2515), Escherichia coli LPS (L-3012), Klebsiella pneumoniae LPS (L-1770), Salmonella typhimurium LPS (L-6511), Salmonella minnesota LPS (chemotype Rd1; L-9391), L-α-phosphatidylcholine (P-279), CUROSURF™ with 80 mg/ml phospholipids from pig surfactant (54 mg/ml phosphatidylcholine and 30-5 mg/ml D-palmitoylphosphatidylcholine; overall: 99% polar phospholipids and 1% proteins) was obtained from Dey (Napa; Italy), and sIgA was purchased from Sigma. The dNTPs and the dNTP-Mix were from Roche Diagnostics. The DNA used in all experiments was the 4.7-kb plasmid pEGFP-N1 from Clontech.
# [1] = target: T2, rDMBT1 binding to HIV-gp120 (Homo sapiens, UniProt Q9UGM3, G1295S/L1336F/T649M); test: Effects of DSS and dextran on rDMBT1 binding to HIV-gp120; settings: 100 μg/ml DSS or dextran; rDMBT1 2 μg/ml; gp120 1 μg/ml
# T2 construct: made in house; host or cells: rDMBT1 from T-REx-CHO
# T2 sequence (Q9UGM3 20-2413 T649M/G1295S/L1336F): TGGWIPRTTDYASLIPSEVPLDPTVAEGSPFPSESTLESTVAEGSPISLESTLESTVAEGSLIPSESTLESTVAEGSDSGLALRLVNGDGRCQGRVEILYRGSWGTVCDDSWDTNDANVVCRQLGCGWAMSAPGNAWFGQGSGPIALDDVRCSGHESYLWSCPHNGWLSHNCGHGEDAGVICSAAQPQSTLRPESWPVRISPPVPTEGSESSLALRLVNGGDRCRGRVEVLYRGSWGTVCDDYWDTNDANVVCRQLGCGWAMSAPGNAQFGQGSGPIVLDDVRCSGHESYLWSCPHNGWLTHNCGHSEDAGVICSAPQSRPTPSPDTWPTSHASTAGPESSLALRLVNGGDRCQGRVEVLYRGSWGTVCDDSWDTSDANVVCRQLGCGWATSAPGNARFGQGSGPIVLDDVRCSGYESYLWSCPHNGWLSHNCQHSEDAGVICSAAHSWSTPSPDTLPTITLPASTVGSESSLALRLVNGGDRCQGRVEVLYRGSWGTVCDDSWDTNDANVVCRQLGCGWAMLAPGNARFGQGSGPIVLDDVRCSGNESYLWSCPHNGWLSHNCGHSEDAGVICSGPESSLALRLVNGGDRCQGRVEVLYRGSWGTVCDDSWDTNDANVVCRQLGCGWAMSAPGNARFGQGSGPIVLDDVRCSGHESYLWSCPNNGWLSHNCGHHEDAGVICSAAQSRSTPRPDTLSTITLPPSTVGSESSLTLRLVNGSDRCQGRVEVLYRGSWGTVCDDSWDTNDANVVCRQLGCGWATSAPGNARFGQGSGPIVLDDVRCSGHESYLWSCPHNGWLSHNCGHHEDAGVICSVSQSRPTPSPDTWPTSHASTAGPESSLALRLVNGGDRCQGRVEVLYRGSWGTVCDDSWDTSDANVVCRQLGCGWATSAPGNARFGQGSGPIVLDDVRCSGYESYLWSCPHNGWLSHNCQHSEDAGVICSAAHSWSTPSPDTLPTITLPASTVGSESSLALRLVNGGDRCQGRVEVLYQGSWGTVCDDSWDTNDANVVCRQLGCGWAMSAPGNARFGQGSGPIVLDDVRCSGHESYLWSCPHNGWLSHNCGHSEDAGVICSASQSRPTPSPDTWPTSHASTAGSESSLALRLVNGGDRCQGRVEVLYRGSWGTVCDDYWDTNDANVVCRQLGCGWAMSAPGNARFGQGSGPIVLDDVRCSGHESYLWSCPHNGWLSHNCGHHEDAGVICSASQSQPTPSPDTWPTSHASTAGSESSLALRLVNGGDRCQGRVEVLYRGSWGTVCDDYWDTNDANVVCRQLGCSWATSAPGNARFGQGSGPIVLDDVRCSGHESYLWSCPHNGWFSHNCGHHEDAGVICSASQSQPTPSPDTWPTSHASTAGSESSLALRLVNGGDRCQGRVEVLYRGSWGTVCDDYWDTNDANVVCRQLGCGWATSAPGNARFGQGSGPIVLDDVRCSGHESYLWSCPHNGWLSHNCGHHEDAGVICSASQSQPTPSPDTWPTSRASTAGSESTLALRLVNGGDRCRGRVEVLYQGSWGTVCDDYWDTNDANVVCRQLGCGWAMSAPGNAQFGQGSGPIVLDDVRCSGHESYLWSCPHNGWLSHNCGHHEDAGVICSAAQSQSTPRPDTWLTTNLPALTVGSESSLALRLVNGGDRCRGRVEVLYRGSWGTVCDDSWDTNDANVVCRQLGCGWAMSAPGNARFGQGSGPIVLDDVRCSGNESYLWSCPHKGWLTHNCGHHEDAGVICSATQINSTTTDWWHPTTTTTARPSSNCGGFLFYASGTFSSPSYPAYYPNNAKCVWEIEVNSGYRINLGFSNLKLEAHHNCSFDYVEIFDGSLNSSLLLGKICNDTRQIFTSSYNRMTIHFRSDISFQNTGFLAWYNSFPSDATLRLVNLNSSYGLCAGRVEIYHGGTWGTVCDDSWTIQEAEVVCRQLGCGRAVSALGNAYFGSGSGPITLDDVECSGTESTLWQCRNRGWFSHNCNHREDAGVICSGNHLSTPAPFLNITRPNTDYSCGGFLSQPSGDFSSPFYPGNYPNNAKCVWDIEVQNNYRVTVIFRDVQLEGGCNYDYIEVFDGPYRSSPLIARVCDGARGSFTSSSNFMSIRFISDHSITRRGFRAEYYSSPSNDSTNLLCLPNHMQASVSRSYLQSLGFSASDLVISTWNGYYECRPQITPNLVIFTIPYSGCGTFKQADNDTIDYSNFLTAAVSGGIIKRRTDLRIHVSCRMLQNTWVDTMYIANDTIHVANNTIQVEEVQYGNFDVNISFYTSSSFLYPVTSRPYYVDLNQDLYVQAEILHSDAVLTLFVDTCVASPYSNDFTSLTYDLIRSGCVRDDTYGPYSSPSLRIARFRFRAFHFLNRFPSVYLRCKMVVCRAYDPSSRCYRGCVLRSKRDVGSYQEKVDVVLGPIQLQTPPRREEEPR
# From the text: Values are means of five independent experiments.
# Salmonella typhimurium = Salmonella typhimurium binding to immobilized DMBT1 or peptide; settings: Rd1 and Re chemotype versus wild type
# Experimental: Salivary DMBT1 (salivary agglutinin; DMBT1^SAG; hereafter referred to as DMBT1) was obtained from parotid saliva of healthy volunteer donors collected with Lashley cups. For confirmatory experiments of DMBT1 interaction partners, initial studies with Salmonella strains, and HIV studies we used DMBT1 purified to about 95% homogeneity by the procedure described before. The concentration was determined by the BCA Protein Assay Kit (Pierce) according to the instructions of the manufacturer. […] For partial purification, 50 ml parotid saliva was incubated for 0.5 to 1 h in ice water, in order to promote the formation of a precipitate. After centrifugation for 20 min (4° C.; 5,000 g), the pellet was resuspended in 1.0 to 2.5 ml PBS. In order to determine the DMBT1 concentrations within the samples, serial dilutions of the preparations were compared to serial dilutions of purified recombinant DMBT1 (rDMBT1) by ELISA and the adjusted concentrations were confirmed by Western blotting (see below).
# Streptococcus mutans (Ingbritt), Streptococcus gordonii (HG 222 and DSM20568), Escherichia coli (F7 and OM36-1), and Helicobacter pylori (ATCC 43504) were gown and processed as described earlier. […]
compound,measurement,setting,value
Aprolinin,Aggregation of E. coli,"DMBT1pbs1; substance 1-5 mg/ml, pH co",+++
same,Aggregation of S. gordonii,"DMBT1pbs1; substance 1-5 mg/ml, pH co",+++
O=[N+]([O-])[O-].[K+] [KNO3],Aggregation of E. coli,"DMBT1pbs1; substance 500 mM, pH co",+
same,Aggregation of S. gordonii,"DMBT1pbs1; substance 500 mM, pH co",+
same,Aggregation of E. coli,"DMBT1pbs1; substance 1-100 mM, pH co",+++
same,Aggregation of S. gordonii,"DMBT1pbs1; substance 1-100 mM, pH co",+++
"CCN(CC)N=O [N-nitrosodiethylamine (DEN), N-nitrosodiethylamine]",Aggregation of E. coli,"DMBT1pbs1; substance 1-50 mM, pH co",+++
same,Aggregation of S. gordonii,"DMBT1pbs1; substance 1-50 mM, pH co",+++
same,Aggregation of E. coli,"DMBT1pbs1; substance 100-500 mM, pH co",++
same,Aggregation of S. gordonii,"DMBT1pbs1; substance 100-500 mM, pH co",++
Nc1nc2c(ncn2[C@H]2C[C@H](O)[C@@H](COP(=O)(O)OP(=O)(O)OP(=O)(O)O)O2)c(=O)[nH]1 [dGTP],Aggregation of E. coli,"DMBT1pbs1; substance 1-8 mM, pH co",++
same,Aggregation of S. gordonii,"DMBT1pbs1; substance 1-8 mM, pH co",++
Nc1ccn([C@H]2C[C@H](O)[C@@H](COP(=O)(O)OP(=O)(O)OP(=O)(O)O)O2)c(=O)n1 [dCTP],Aggregation of E. coli,"DMBT1pbs1; substance 1-8 mM, pH co",++
same,Aggregation of S. gordonii,"DMBT1pbs1; substance 1-8 mM, pH co",++
O=S(=O)([O-])[O-].[Na+].[Na+] [Na2SO4],Aggregation of E. coli,"DMBT1pbs1; substance 1 mM, pH co",+
same,Aggregation of S. gordonii,"DMBT1pbs1; substance 1 mM, pH co",+
same,Aggregation of E. coli,"DMBT1pbs1; substance 50-500 mM, pH co",−
same,Aggregation of S. gordonii,"DMBT1pbs1; substance 50-500 mM, pH co",−
NC(=O)CC[C@H](N)C(=O)O [Glutamine],Aggregation of E. coli,"DMBT1pbs1; substance 1-250 mM, pH co",+++
same,Aggregation of S. gordonii,"DMBT1pbs1; substance 1-250 mM, pH co",+++
O=P([O-])(O)O.[K+] [KH2 PO4],Aggregation of E. coli,"DMBT1pbs1; substance 1-10 mM, pH co",+
same,Aggregation of S. gordonii,"DMBT1pbs1; substance 1-10 mM, pH co",+
[Cl-].[Na+] [NaCL],Aggregation of E. coli,DMBT1pbs1,+++ and +
same,Aggregation of S. gordonii,DMBT1pbs1,+++ and +
dextran,inhibition of rDMBT1 binding to immobilized HIV-gp120,[1],"but not dextran, which lacks the sulfate groups, exerted an inhibitory effect"
OC[C@H]1O[C@H](O[C@H]2[C@H](O)[C@@H](O)C(O)O[C@@H]2CO)[C@H](O)[C@@H](O)[C@@H]1O (mixture of isomers) [Maltose],Aggregation of E. coli,"DMBT1pbs1; substance 1-500 mM, pH co",+++
same,Aggregation of S. gordonii,"DMBT1pbs1; substance 1-500 mM, pH co",+++
OC[C@H]1O[C@@](CO)(O[C@H]2O[C@H](CO)[C@@H](O)[C@H](O)[C@H]2O)[C@@H](O)[C@@H]1O [Sucrose],Aggregation of E. coli,"DMBT1pbs1; substance 1-500 mM, pH co",+++
same,Aggregation of S. gordonii,"DMBT1pbs1; substance 1-500 mM, pH co",+++
Cc1cn([C@H]2C[C@H](O)[C@@H](COP(=O)(O)OP(=O)(O)OP(=O)(O)O)O2)c(=O)[nH]c1=O [dTTP],Aggregation of E. coli,"DMBT1pbs1; substance 1-8 mM, pH co",++
same,Aggregation of S. gordonii,"DMBT1pbs1; substance 1-8 mM, pH co",++
[Na+].[OH-] [NaOH],Aggregation of E. coli,"DMBT1pbs1; substance 5-50 mM, pH co",+++
same,Aggregation of S. gordonii,"DMBT1pbs1; substance 5-50 mM, pH co",+++
Nc1ncnc2c1ncn2[C@H]1C[C@H](O)[C@@H](COP(=O)(O)OP(=O)(O)OP(=O)(O)O)O1 [dATP],Aggregation of E. coli,"DMBT1pbs1; substance 1-8 mM, pH co",++
same,Aggregation of S. gordonii,"DMBT1pbs1; substance 1-8 mM, pH co",++
[Ba+2].[OH-].[OH-] [BaOH],Aggregation of E. coli,"DMBT1pbs1; substance 5-50 mM, pH co",+++
same,Aggregation of S. gordonii,"DMBT1pbs1; substance 5-50 mM, pH co",+++
Heparan sulfate,Aggregation of E. coli,"DMBT1pbs1; substance 1-5 mg/ml, pH co",−
same,Aggregation of S. gordonii,"DMBT1pbs1; substance 1-5 mg/ml, pH co",−
"CN=[N+](C)[O-] [Azoxymethane (AOM), Azoxymethane]",Aggregation of E. coli,"DMBT1pbs1; substance 1-500 mM, pH co",+++
same,Aggregation of S. gordonii,"DMBT1pbs1; substance 1-500 mM, pH co",+++
Chondroitin sulfate B,Aggregation of E. coli,"DMBT1pbs1; substance 1-5 mg/ml, pH co",−
same,Aggregation of S. gordonii,"DMBT1pbs1; substance 1-5 mg/ml, pH co",−
O=P([O-])([O-])O.[K+].[K+] [K2HPO4],Aggregation of E. coli,"DMBT1pbs1; substance 1 mM, pH co",++
same,Aggregation of S. gordonii,"DMBT1pbs1; substance 1 mM, pH co",++
NH2-QGRVEVLYRGSWGTVC-COOH (H-QGRVEVLYRGSWGTVC-OH) [DMBT1-SRCRP2],binding of Salmonella typhimurium chemotypes,Salmonella typhimurium,Enhanced binding of the Rd1 and Re chemotype
DMBT1: purified DMBT1 from saliva (salivary agglutinin),binding of Salmonella typhimurium chemotypes,Salmonella typhimurium,Enhanced binding of the Rd1 and Re chemotype
O=P([O-])([O-])[O-].[Na+].[Na+].[Na+] [Na3PO4],Aggregation of E. coli,"DMBT1pbs1; substance 1 mM, pH co",++
same,Aggregation of S. gordonii,"DMBT1pbs1; substance 1 mM, pH co",++
